Key:
Fusarium nivale = experiment: In vivo curative test on Fusarium nivale (wheat); settings: 500 ppm of active ingredient, evaluated 8 days after inoculation
Tetranychus urticae = experiment: Spray application test on Tetranychus urticae; assay type: in vivo; settings: 500 g of active ingredient/ha; after 6 days
Description: Solvent: 78.0 parts by weight acetone • 1.5 parts by weight dimethylformamide
Emulsifier: 0.5 parts by weight alkylarylpolyglcolether
French beans (Phaseolus vulgaris) which are heavily infested with all stages of the two spotted spidermite (Tetranychus urticae), are sprayed with a preparation of the active ingredient at the desired concentration.
After 6 days, mortality in % is determined. 100% means that all spider mites have been killed and 0% means that none of the spider mites have been killed.

[1] = logP by HPLC on reversed-phase column (EEC Directive 79/831 Annex V.A8); settings: for logP: 40° C., 0.1% aqueous formic acid and acetonitrile, linear gradient 10% to 90% acetonitrile
Sphaerotheca fuliginea = experiment: In vivo preventive test on Sphaerotheca fuliginea (cucumber), Example G; settings: 10 ppm of active ingredient, evaluated 7 days after inoculation
Source text: After the spray coating has dried on, the plants are inoculated with an aqueous spore suspension of Sphaerotheca fuliginea.

Aspergillus parasiticus = experiment: microbe, parasite or virus in culture; assay type: cell-based; settings: 168 h, 50 μM of active ingredient, 7 days, fluorescence, read-out: inhibition of aflatoxines production
Meloidogyne incognita = experiment: Test on Meloidogyne incognita; assay type: in vivo; settings: 20 ppm of active ingredient; after 14 days
Description: Solvent: 80.0 parts by weight of acetone
Vessels are filled with sand, a solution of the active ingredient, a suspension containing eggs and larvae of Meloidogyne incognita and salad seeds. The salad seeds germinate and the seedlings grow. Galls develop in the roots.
After 14 days the nematicidal activity is determined on the basis of the percentage of gall formation. 100% means that no galls were found; 0% means that the number of galls found on the roots of the treated plants was equal to that in untreated control plants.

Puccinia triticina = experiment: In vivo curative test on Puccinia triticina (wheat); settings: 500 ppm of active ingredient, evaluated 8 days after inoculation
Phakopsora pachyrhizi = experiment: In vivo preventive test on Phakopsora pachyrhizi (soybean rust); settings: 50 ppm of active ingredient, evaluated 11 days after inoculation
Description: Solvent: 28.5 parts by weight of acetone
Emulsifier: 1.5 parts by weight of polyoxyethylene alkyl phenyl ether
One day after spraying, the plants are inoculated with an aqueous spore suspension of the causal agent of soybean rust (Phakopsora pachyrhizi).
The test is evaluated 11 days after the inoculation.

Fusarium proliferatum = experiment: Inhibition of Fumonisin FB1 produced by Fusarium proliferatum; assay type: cell-based; settings: 120 h, read-out: inhibition of Fumonisin FB1 production
[2] = HPLC, reversed-phase column (C 18)

CC(c1cc(Cl)cc(Cl)c1)N(C(=O)c1c(C(F)F)nn(C)c1F)C1CC1 (racemic) [Example 40]
disease control (Fusarium nivale): 100%
mortality in % (Tetranychus urticae): 80%
logP [1, 2]: 4.04

Cn1nc(C(F)F)c(C(=O)N(Cc2cc(Cl)ccc2C(F)(F)F)C2CC2)c1F [Example 1]
disease control (Fusarium nivale): 100%
mortality in % (Tetranychus urticae): 80%
disease control (Sphaerotheca fuliginea): 100%
logP [1, 2]: 3.8

Cn1nc(C(F)F)c(C(=O)N(Cc2c(Cl)cccc2C(F)(F)F)C2CC2)c1F [Example 2]
disease control (Fusarium nivale): 100%
disease control (Sphaerotheca fuliginea): 100%
logP [1, 2]: 3.46

Cn1nc(C(F)F)c(C(=O)N(Cc2ccccc2[Si](C)(C)C)C2CC2)c1F [Example 3, N-cyclopropyl-3-(difluoromethyl)-5-fluoro-1-methyl-N-[2-(trimethylsilyl)benzyl]-1H-pyrazole-4-carboxamide]
inhibition at 50 µM (Aspergillus parasiticus): > 80%
chromatographic logP [1]: 4.36

Cn1nc(C(F)F)c(C(=O)N(Cc2c(C(F)(F)F)ccc(Cl)c2F)C2CC2)c1F [Example 5]
disease control (Fusarium nivale): 100%
mortality in % (Tetranychus urticae): 80%
disease control (Sphaerotheca fuliginea): 100%
logP [1, 2]: 3.62

CC(C)c1ccccc1CN(C(=O)c1c(C(F)F)nn(C)c1F)C1CC1 [Example 6]
disease control (Fusarium nivale): 100%
mortality in % (Tetranychus urticae): 80%
disease control (Sphaerotheca fuliginea): 100%
nematicidal activity (% reduction of galls vs untreated control) (Meloidogyne incognita): 80%
logP [1, 2]: 3.35

Cn1nc(C(F)F)c(C(=O)N(Cc2c(F)cccc2I)C2CC2)c1F [Example 8]
disease control (Fusarium nivale): 100%
disease control (Sphaerotheca fuliginea): 100%
logP [1, 2]: 3.26

Cn1nc(C(F)F)c(C(=O)N(Cc2c(Br)ccc(F)c2F)C2CC2)c1F [Example 10]
disease control (Fusarium nivale): 100%
disease control (Sphaerotheca fuliginea): 100%
logP [1, 2]: 3.21

CC[Si](CC)(CC)c1ccccc1CN(C(=O)c1c(C(F)F)nn(C)c1F)C1CC1 [Example 14]
disease control (Fusarium nivale): 100%
disease control (Sphaerotheca fuliginea): 100%
logP [1, 2]: 5.53

Cn1nc(C(F)F)c(C(=O)N(Cc2c(C(F)(F)F)ccc(Cl)c2Cl)C2CC2)c1F [Example 15]
disease control (Fusarium nivale): 100%
disease control (Sphaerotheca fuliginea): 100%
logP [1, 2]: 3.89

Cn1nc(C(F)F)c(C(=O)N(Cc2cc(Cl)cc(Cl)c2Cl)C2CC2)c1F [Example 18]
disease control (Fusarium nivale): 100%
disease control (Sphaerotheca fuliginea): 100%
logP [1, 2]: 4.11

Cn1nc(C(F)F)c(C(=O)N(Cc2cc(Cl)ccc2I)C2CC2)c1F [Example 23]
disease control (Fusarium nivale): 100%
disease control (Sphaerotheca fuliginea): 100%
logP [1, 2]: 3.83

Cn1nc(C(F)F)c(C(=O)N(Cc2cc(Cl)ccc2[Si](C)(C)C)C2CC2)c1F [Example 24]
disease control (Fusarium nivale): 100%
disease control (Sphaerotheca fuliginea): 100%
logP [1, 2]: 4.81

CCCCCc1ccccc1CN(C(=O)c1c(C(F)F)nn(C)c1F)C1CC1 [Example 28]
disease control (Fusarium nivale): 100%
logP [1, 2]: 4.62

CC(C)c1ccc(Cl)cc1CN(C(=O)c1c(C(F)F)nn(C)c1F)C1CC1 [Example 29]
disease control (Fusarium nivale): 100%
disease control (Sphaerotheca fuliginea): 100%
logP [1, 2]: 4.09

Cn1nc(C(F)F)c(C(=O)N(Cc2ccccc2SC(F)(F)F)C2CC2)c1F [Example 30]
disease control (Fusarium nivale): 100%
mortality in % (Tetranychus urticae): 80%
logP [1, 2]: 3.74

CC(C)Cc1ccccc1CN(C(=O)c1c(C(F)F)nn(C)c1F)C1CC1 [Example 33]
disease control (Fusarium nivale): 100%
logP [1, 2]: 4.15

Cn1nc(C(F)F)c(C(=O)N(Cc2cc(Cl)ccc2C(F)(F)F)C2CC2)c1Cl [Example 36]
disease control (Fusarium nivale): 100%
logP [1, 2]: 4.01

Cn1nc(C(F)F)c(C(=S)N(Cc2ccccc2[Si](C)(C)C)C2CC2)c1F [Example 38, N-cyclopropyl-3-(difluoromethyl)-5-fluoro-1-methyl-N-[2-(trimethylsilyl)benzyl]-1H-pyrazole-4-carbothioamide]
inhibition at 50 µM (Aspergillus parasiticus): > 80%
disease control (Sphaerotheca fuliginea): 100%
chromatographic logP [1]: 4.94

Cn1nc(C(F)F)c(C(=S)N(Cc2ccccc2)C2CC2)c1F [Example 39]
disease control (Fusarium nivale): 100%
logP [1, 2]: 3.44

Cn1nc(C(F)F)c(C(=O)N(Cc2cc(Cl)ccc2C2CC2)C2CC2)c1F [Example 41]
disease control (Fusarium nivale): 100%
disease control (Sphaerotheca fuliginea): 100%
logP [1, 2]: 3.87

CC(C)Oc1ccc2c(c1)CCCC2N(C(=O)c1c(C(F)F)nn(C)c1F)C1CC1 (centres unmarked) [Example 42]
disease control (Fusarium nivale): 100%
logP [1, 2]: 4.11

Cn1nc(C(F)F)c(C(=O)N(Cc2cc(I)ccc2C(F)(F)F)C2CC2)c1F [Example 43]
disease control (Fusarium nivale): 100%
logP [1, 2]: 4.01

CCc1ccccc1CN(C(=O)c1c(C(F)F)nn(C)c1F)C1CC1 [Example 48]
disease control (Fusarium nivale): 100%
logP [1, 2]: 3.33

CCc1cc(C)c(C)cc1CN(C(=O)c1c(C(F)F)nn(C)c1F)C1CC1 [Example 53]
disease control (Fusarium nivale): 100%
logP [1, 2]: 4.04

Cn1nc(C(F)F)c(C(=O)N(Cc2ccccc2C(F)(F)F)C2CC2)c1F [Example 61]
disease control (Fusarium nivale): 100%
logP [1, 2]: 3.39

Cn1nc(C(F)F)c(C(=O)N(Cc2ccc(Cl)cc2Cl)C2CC2)c1F [Example 63]
disease control (Fusarium nivale): 100%
logP [1, 2]: 3.69

Cn1nc(C(F)F)c(C(=O)N(Cc2cccc(-c3ccccc3)c2)C2CC2)c1F [Example 64]
disease control (Fusarium nivale): 100%
logP [1, 2]: 3.78

CC(C)c1ccccc1C(C)N(C(=O)c1c(C(F)F)nn(C)c1F)C1CC1 (centres unmarked) [Example 80]
disease control (Fusarium nivale): 100%
disease control (Sphaerotheca fuliginea): 100%
logP [1, 2]: 3.99

CCc1ccccc1C(C)N(C(=O)c1c(C(F)F)nn(C)c1F)C1CC1 (centres unmarked) [Example 81]
disease control (Fusarium nivale): 100%
disease control (Sphaerotheca fuliginea): 100%
logP [1, 2]: 3.69

Cn1nc(C(F)F)c(C(=O)N(Cc2c(F)cccc2C(F)(F)F)C2CC2)c1F [Example 84]
disease control (Fusarium nivale): 100%
disease control (Sphaerotheca fuliginea): 100%

CC(c1ncc(C(F)(F)F)cc1Cl)N(C(=O)c1c(C(F)F)nn(C)c1F)C1CC1 (centres unmarked) [Example 90]
disease control (Fusarium nivale): 100%
logP [1, 2]: 3.71

Cn1nc(C(F)F)c(C(=O)N(Cc2ccccc2OC(F)(F)F)C2CC2)c1F [Example 105]
disease control (Fusarium nivale): 100%
logP ([1]; HPLC on reversed-phase column (C 18)): 3.46

CC(c1cccc2ccccc12)N(C(=O)c1c(C(F)F)nn(C)c1F)C1CC1 (centres unmarked) [N-cyclopropyl-3-(difluoromethyl)-5-fluoro-1-methyl-N-[1-(1-naphthyl)ethyl]-1H-pyrazole-4-carboxamide, reference compound]
disease control (Fusarium nivale): less than 95%
disease control (Puccinia triticina): less than 85%

Cc1nn(C)c(F)c1C(=S)N(Cc1ccccc1[Si](C)(C)C)C1CC1 [N-cyclopropyl-5-fluoro-1,3-dimethyl-N-[2-(trimethylsilyl)benzyl]-1H-pyrazole-4-carbothioamide]
disease control (Phakopsora pachyrhizi): less than 85%

Cn1nc(C(F)F)c(C(=O)N(Cc2ncc(C(F)(F)F)cc2Cl)C2CC2)c1F [N-{[3-chloro-5-(trifluoromethyl)pyridin-2-yl]methyl}-N-cyclopropyl-3-(difluoromethyl)-5-fluoro-1-methyl-1H-pyrazole-4-carboxamide]
inhibition at 50 µM (Fusarium proliferatum): < 55%
